Assay results taken from patent US11591306B2, “Vitamin E-based amphipathic compound, and use thereof” (Industry-University Cooperation Foundation Hanyang …, priority 2017, dated 2023).

Experiments:
[1] = Critical micelle concentration by hydrophobic fluorescence staining with diphenylhexatriene (DPH); type: physicochemical; conditions: aqueous solution
Description: A method of measuring CMC is not particularly limited, and may be a method widely known in the art, for example, fluorescent staining using diphenylhex riene (DPH).
(§1) To identify the properties of VEGs synthesized according to the synthetic methods of Preparation Examples 1 to […] molecular weights (M.W.) and critical micellar concentrations (CMCs) of VEGs, and the hydrodynamic radii (Rh) of formed micelles were measured.
(§2) Specifically, the CMCs were measured using hydrophobic fluorescence staining and diphenylhexatriene (DPH), and the hydrodynamic radii (Rh) of the micelles formed by each formulation were measured by dynamic light scattering (DLS).

[2] = Hydrodynamic radius of micelles by dynamic light scattering (DLS); type: physicochemical; conditions: at 1.0 wt %
Description: A method of measuring the radius of a micelle is not particularly limited, but may be a method well known in the art, for example, dynamic light scattering (DLS).
as §1, §2

[3] = target: T1, MelBSt (melibiose permease) (Salmonella typhimurium, UniProt P30878); test: MelBSt extraction/solubilization and thermal stability, SDS-PAGE and Western blotting
T1 construct: made in house; host or cells: E. coli DW2 (ΔmelB and ΔlacZY), plasmid pK95ΔAHB/WT MelBSt/CH10
T1 sequence (P30878 whole entry): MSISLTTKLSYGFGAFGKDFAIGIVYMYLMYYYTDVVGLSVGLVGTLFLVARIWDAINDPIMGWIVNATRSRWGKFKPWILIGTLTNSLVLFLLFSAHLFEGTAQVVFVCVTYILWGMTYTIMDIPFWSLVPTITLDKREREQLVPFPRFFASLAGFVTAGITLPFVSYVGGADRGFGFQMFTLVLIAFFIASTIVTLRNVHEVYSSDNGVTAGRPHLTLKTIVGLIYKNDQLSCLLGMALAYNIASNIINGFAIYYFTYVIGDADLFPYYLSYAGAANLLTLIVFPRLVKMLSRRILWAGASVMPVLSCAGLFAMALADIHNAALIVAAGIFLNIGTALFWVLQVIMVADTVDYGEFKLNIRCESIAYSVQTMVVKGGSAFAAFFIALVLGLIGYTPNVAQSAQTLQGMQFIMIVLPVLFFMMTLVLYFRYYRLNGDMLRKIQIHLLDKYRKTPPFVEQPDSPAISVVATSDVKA
Description: Specifically, Salmonella typhimurium MelBSt (melibiose permease) having a 10 His tag at the C-terminus was expressed in E. coli DW2 cells (ΔmelB and ΔlacZY) using a pK95ΔAHB/WT MelBSt/CH10 plasmid. Cell growth and membrane preparation were carried out according to the methods disclosed in the paper written by A. S. Ethayathulla et al. (Nat. Commun. 2014, 5, 3009). A protein assay was performed using a Micro BCA kit (Thermo Scientific, Rockford, Ill.). MelBSt stability in VEGs or DDM was evaluated using the protocol disclosed in Nat. Methods 2010, 7, 1003-1008, written by P. S. Chae et al. A MelBSt-containing membrane sample (the final protein concentration was 10 mg/mL) was incubated in a solubilization buffer containing 1.5% (w/v) DDM or VEGs (50 mM sodium phosphate, pH 7.5, 200 mM NaCl, 10% glycerol, 20 mM melibiose) at two different temperatures (0 and 23° C.) for 90 minutes. To remove an insoluble material, ultracentrifugation was performed using a Beckman Optima™ MAX ultracentrifuge equipped with a TLA-100 rotor at 355,590 g and 4° C. for 30 minutes. […] The loaded samples were analyzed by SDS-15% PAGE, and then visualized by immunoblotting with a Penta-His-HRP antibody (Qiagen, Germantown, Md.).
To assess the thermal stability of MelBSt in various amphipathic molecules, MelBSt extracted with individual amphipathic molecules at 23° C. was subjected to additional thermal treatment at three different temperature (45, 55 and 65° C.) and ultracentrifugation, followed by SDS-15% PAGE and Western blotting. MelBSt was detected using a SuperSignalWest Pico chemiluminescent substrate by an ImageQuant LAS 4000 Biomolecular Imager (GE Healthcare Life Science).

[4] = target: T2, β2AR (Homo sapiens, UniProt P07550); test: β2AR stability, [3H]-dihydroalprenolol (DHA) ligand binding; conditions: CMC+0.2 wt %, 10 days at room temperature
T2 construct: made in house; host or cells: Sf9 insect cells, baculovirus
T2 sequence (P07550 whole entry): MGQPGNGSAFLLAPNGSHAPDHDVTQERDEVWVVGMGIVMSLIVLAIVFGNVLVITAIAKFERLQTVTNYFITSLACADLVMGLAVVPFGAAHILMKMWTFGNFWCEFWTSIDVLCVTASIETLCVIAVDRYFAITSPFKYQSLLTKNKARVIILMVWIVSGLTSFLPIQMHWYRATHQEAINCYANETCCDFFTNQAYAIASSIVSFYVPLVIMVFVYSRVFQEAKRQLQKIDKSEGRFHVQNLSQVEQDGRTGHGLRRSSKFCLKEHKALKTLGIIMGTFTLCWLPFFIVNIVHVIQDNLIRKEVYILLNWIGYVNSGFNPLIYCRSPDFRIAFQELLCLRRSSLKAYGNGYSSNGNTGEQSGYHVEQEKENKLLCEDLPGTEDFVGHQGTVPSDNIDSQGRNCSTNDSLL
Description: A receptor was expressed in Sf9 insect cells infected with Baculovirus and solubilized in 1% DDM. The DDM-solubilized receptor was purified by alprenolol-sepharose in the presence of 0.01% cholesteryl succinate (CHS). β2AR purified by DDM was diluted with a buffer containing DDM or VEGs (VEG-1, VEG-2, VEG-3 and VEG-5) to reach the final concentration of CMC+0.2 wt %. β2AR solubilized in each compound was stored for 10 days at room temperature, and the ligand binding ability of the receptor was measured at regular intervals by incubating the receptor with 10 nM radioactive [^3H]-dihydroalprenolol (DHA) for 30 minutes at room temperature. The mixture was loaded into a G-50 column, and a supernatant was collected using a certain amount of binding buffer (supplemented with […] pH 7.5, 100 mM NaCl, 0.5 mg/ml BSA). In addition, a 15 ml scintillation fluid was added. Receptor-binding [^3H]-DHA was measured using a scintillation counter (Beckman).

[5] = target: T3, β2AR-Gs complex (Homo sapiens, UniProt P07550); test: β2AR-Gs complex stability by analytical gel filtration (SEC); conditions: complex purified in VEG-3, 3 and 15-day incubation, compound-free running buffer
T3 construct: made in house
T3 sequence (P07550 whole entry): as above
T3 sequence (P63092 whole entry partner): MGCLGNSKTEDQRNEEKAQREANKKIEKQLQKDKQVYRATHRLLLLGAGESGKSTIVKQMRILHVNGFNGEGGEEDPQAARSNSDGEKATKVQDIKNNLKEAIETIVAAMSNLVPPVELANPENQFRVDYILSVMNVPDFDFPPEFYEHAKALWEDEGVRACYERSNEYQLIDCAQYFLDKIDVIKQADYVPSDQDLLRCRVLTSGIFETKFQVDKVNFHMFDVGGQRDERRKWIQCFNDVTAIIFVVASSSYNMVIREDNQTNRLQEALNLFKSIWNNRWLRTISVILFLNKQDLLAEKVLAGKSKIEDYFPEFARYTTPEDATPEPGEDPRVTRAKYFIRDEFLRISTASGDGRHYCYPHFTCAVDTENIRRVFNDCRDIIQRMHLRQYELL
T3 sequence (P62873 whole entry partner): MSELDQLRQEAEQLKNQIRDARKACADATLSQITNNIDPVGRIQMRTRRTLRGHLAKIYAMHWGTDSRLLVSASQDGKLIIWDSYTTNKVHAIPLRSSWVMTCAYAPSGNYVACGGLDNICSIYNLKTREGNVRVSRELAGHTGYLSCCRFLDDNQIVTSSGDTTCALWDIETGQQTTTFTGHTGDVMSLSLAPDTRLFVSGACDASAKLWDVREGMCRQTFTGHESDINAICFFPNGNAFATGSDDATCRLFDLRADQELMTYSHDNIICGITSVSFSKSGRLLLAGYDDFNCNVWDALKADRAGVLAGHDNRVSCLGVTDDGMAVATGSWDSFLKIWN
T3 sequence (P59768 2-68 partner limits assumed): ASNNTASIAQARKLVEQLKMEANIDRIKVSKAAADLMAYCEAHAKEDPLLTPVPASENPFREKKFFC
Description: 100 μM β2AR solubilized in 0.1% DDM mixed with 120 μM Gs heterotrimer for 30 minutes at room temperature. 0.5-unit apyrase (NEB) and 2 mM MgCl2 were added to facilitate complex formation, followed by further incubation for one hour. Subsequently, 1.0% VEG-3 was added such that the final concentration reached 0.2%, and the sample was further incubated for 30 minutes to change DDM to VEG-3. The protein solution was loaded into a M1 Flag column, washed with a series of buffers with different molar ratios of 0.1% DDM buffer to 0.5% VEG-3 buffer to completely change DDM to VEG-3, and the receptor-Gs complex was finally eluted with a 0.05% VEG-3 buffer. Preparative gel filtration was performed to purify the β2AR-Gs complex with a running buffer (20 mM HEPES pH 7.5, 100 mM NaCl, 0.005% DTM-A6, 1 mM BI, […]). To measure the stability of the β2AR-Gs complex in VEG-3, analytical gel filtrations were performed using the running buffer as above, but after 3 and 15-day incubation, performed without VEG-3 (compound-free condition).

With Cc1c(C)c2c(c(C)c1OCC(=O)NC(CO[C@@H]1OC(CO)[C@@H](O[C@H]3OC(CO)[C@@H](O)[C@H](O)C3O)[C@H](O)C1O)CO[C@@H]1OC(CO)[C@@H](O[C@H]3OC(CO)[C@@H](O)[C@H](O)C3O)[C@H](O)C1O)CCC(C)(CCCC(C)CCCC(C)CCCC(C)C)O2 (stereo partly shown) [VEG-3] as the molecule, how does the “CMC” value [1] read?
The value was roughly 0.002 mM.

And the “CMC (wt %)” value [1]?
Its value is roughly 0.0002 wt %.

And the “Rh (nm), hydrodynamic radius of micelles” value [2]?
The value was 4.8 ± 0.1 nm.

And the MelBSt solubilization ability ([3]; 1.5 wt %, extracted at 23° C., then 65° C.)?
The MelBSt solubilization ability was “very excellent protein solubilization ability”.

And the “MelBSt transporter solubilization ability in the thermal stability experiment” value ([3]; elevated temperatures (overall))?
The value was “higher transporter solubilization ability than DDM”.

And the “Long-term β2AR activity ([3H]-DHA binding)” value [4]?
Its value is “consistently maintained during incubation for 10 days”.

What about the “Integrity of the purified β2AR-Gs complex (SEC)” value [5] of the same molecule?
Its value is “continuously maintains its integrity as a complex for 15 days”.
